Test [1] relates to Host Versus Graft Reaction (HvGR) in the Rat. Nature of the test: Inhibitory activity against host versus graft reaction (HvGR) in the rat. The note with it: Lewis rats injected with WKAH/Hkm spleen cells into hind foot pads; oral, once a day for 4 successive days; popliteal lymph node weight. The class given is in vivo. An excerpt: Determination of the Inhibitory Activity Against Host Versus Graft Reaction (HvGR) in the Rat
(1) Two Strains of Rats (Lewis Rats (Male, 6 Weeks Old, Charles River Japan) and WKAH/Hkm (Male, 7 Weeks Old, SLC Japan)) Were Used. Five Rats (Host) Per Group Were Used.
The spleen cells were isolated from the spleen of the rats and 1×10^8 cells were suspended in the RPMI640 medium (LIFE TECHNOLOGIES, Rockville Md. USA). One hundred microliter (1×10^7 cells) of the spleen cell suspension whose cells were isolated from either WKAH/Hkm rats or Lewis rats were subcutaneously injected into the bilateral feet pad of the hindlimbs of the Lewis rat.
(3) Administration of the Compound
The compound was suspended in 0.5% tragacanth solution The suspended compound was orally administered to rats in the drug-treated group (Lewis rats injected with spleen cells isolated from AH/Hkm rats, and treated with the compound) at a volume of 5 ml/kg. The treatment was started on the day of the spleen cell injection, once a day, for 4 successive days. Tragacanth solution (0.5%) was orally administered, instead of the suspension of the test compound, to the rats in the same strain group (Lewis rats injected with spleen cells which were isolated from the Lewis rats) and to the rats in the control group (Lewis rats injected spleen cells isolated from WKAH/Hkm rats, and not treated with the test compound).
(4) Determination Procedures for Inhibitory Activity Against HvGR
The average weight of the popliteal lymph node of the same strain rats was subtracted from the weight of the popliteal lymph node of the individual rat (popliteal lymph gland weight due to HvGR). The inhibition rate of the popliteal lymph node weight due to HvGR of the individual rat treated with the test compound against the average weight of the control rats was calculated. The inhibitory activity of the test compound was expressed as an ID50 value (mg/kg) calculated from the dose-inhibition rate by the least square method.

A further test concerns Adjuvant Arthritis. The test is described as follows: Inhibitory activity on induction of adjuvant arthritis. The class given is in vivo, rat. Particulars: adjuvant (Mycobacterium butylricum) in right hind paw of female Lewis rats; oral, once daily for 21 days; swelling volume of right hind paw. How it is done:
Determination of the Inhibitory Activity of the Compounds of the Present Invention on Induction of Adjuvant Arthritis
1. Preparation of Adjuvant
Heat-killed, Mycobacterium butylricum was suspended in mineral oil at a concentration of 2 mg/ml and sonicated with an ultrasonic apparatus.
2. Preparation of the Test Compound.
The test compound was suspended in 0.5% Tragacanth solution.
3. Induction of Adjuvant Arthritis
The adjuvant prepared as described in 1 was intradermally injected into the right hind paw of the female rats (usually Lewis rats were used) at a volume of 0.05 ml. Five rats per group were used. In one group of rats, adjuvant was not injected for the control group.
4. Administration of the Compound
The compound solution prepared as described in 2 was orally administered to rats from the injection day of the adjuvant, once daily for 21 days, at a dose of 5 ml/kg. Tragacanth solution (0.5%) was orally administered to one group of rats treated with adjuvant (the control group) and also to rats not treated with adjuvant.
5. Calculation Methods of Inhibitory Activity of the Compound
The volume of the right hind paw was determined with a plethymometer. The volume of the intact paw was subtracted from the individual volume, and the difference was used as the swelling volume. Then the inhibitory activity of the compound was calculated from the individual swelling volume of rats treated with the compound and that in the swelling volume of the control rats. The ID50 value of the compound was obtained from the doses treated and the average inhibitory rate of the group.

Turning to `COc1cccc(OCC#Cc2ccc(CC[C@@](C)(N)CO)s2)c1.O=C(O)/C=C\C(=O)O` [Example 43, (2R)-Amino-2-methyl-4-{5-[3-(3-methoxylphenoxy)propynyl]thiophen-2-yl}butan-1-ol Maleate], in test [1], the “HvGR ID50 values” is reported as 0.0730 mg/kg.
With `Cc1ccc(OCC#Cc2ccc(CC[C@@](C)(N)CO)s2)cc1.O=C(O)/C=C\C(=O)O` [Example 34, (2R)-Amino-2-methyl-4-{5-[3-(4-methylphenoxy)propynyl]thiophen-2-yl}butan-1-ol Maleate], in the test on Adjuvant Arthritis, the ID50 value is given as 0.0470 mg/kg.
Consider `COc1ccc(OCC#Cc2ccc(CC[C@@](C)(N)CO)s2)cc1OC.O=C(O)/C=C\C(=O)O` [Example 40, (2R)-Amino-2-methyl-4-{5-[3-(3,4-dimethoxphenoxy)propynyl]thiophen-2-yl}butan-1-ol Maleate], for which the “HvGR ID50 values” in test [1] worked out at 0.0683 mg/kg.
On the same count and under the same terms, the value for `C[C@](N)(CO)CCc1ccc(CCCCCC2CCCCC2)s1` [Example 11, (2R)-Amino-2-methyl-4-[5-(5-Cyclohexylpent)thiophen-2-yl]butan-1-ol] was 0.0844 mg/kg.
For `C[C@](N)(CO)CCc1ccc(C#CCCCC2CCCCC2)s1` [Example 1, (2R)-Amino-2-methyl-4-[5-(5-Cyclohexylpent-1-ynyl)thiophen-2-yl]butan-1-ol], the “HvGR ID50 values” in test [1] amounted to 0.0843 mg/kg. Further, the ID50 value in the test with Adjuvant Arthritis was 0.0897 mg/kg.
As for `Cc1ccc(OCC#Cc2ccc(CC[C@@](C)(N)CO)s2)cc1C.O=C(O)/C=C\C(=O)O` [Example 46, (2R)-Amino-2-methyl-4-{5-[3-(3,4-dimethylphenoxy)propynyl]thiophen-2-yl}butan-1-ol Maleate], the “HvGR ID50 values” in test [1] is reported as 0.0454 mg/kg.
Turning to `CCCCCCCCc1ccc(CCC(N)(CO)CO)cc1.Cl` [Reference Compound 1, reference compound], the “HvGR ID50 values” in test [1] is listed as 0.354 mg/kg. In addition, the ID50 value in the test with Adjuvant Arthritis is listed as 0.1666 mg/kg.
